Experimental findings from ChEMBL document CHEMBL1201862, “PubChem BioAssay data set” (2004) are described below.

Assay in all cases: DTP human tumour cell line panel, 48 h
Test [1] relates to HOP-92.
For test [2], the system named is 786-0.
In test [3] the test system is Malme-3M.
For test [4], the system named is Hs-578T.
Test [5] has as its system BT-549.
The test system of test [6] is DU-145.
Test [7] has as its system NCI-H23.
Test [8] concerns MCF7.
Test [9] relates to CCRF-CEM.
Test [10] concerns MOLT-4.
Test [11] has as its system SF-295.
In test [12] the test system is M14.
Test [13] relates to HCT-116.
In test [14] the test system is ACHN.
For test [15], the system named is IGROV-1.
Test [16] relates to PC-3.
Test [17] deals with SNB-75.
Test [18] deals with HL-60.
In test [19] the test system is UACC-62.
Test [20] deals with K562.

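Briefly, cells in 96-well plates were exposed to five compound concentrations for 48 h, and endpoints were estimated by linear interpolation. At the GI50, growth is halved.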 Active and inactive are the calls of the source. Rule as the data show it: active = GI50 up to about 1.1 µM and inactive = higher.

As a reminder, the GI50 is the concentration that inhibits growth by half.

For the molecule `OCC1OC(OCC(O)C(O)C(O)C(/C=N/Nc2ccccc2)=N/Nc2ccccc2)C(O)C(O)C1O` (stereo not drawn), the GI50 was 34.8 µM (inactive) in test [1]; > 100 µM (inactive) in test [2]; 85.5 µM (inactive) in test [3]; > 100 µM (inactive) in test [4]; > 100 µM (inactive) in test [5]; > 100 µM (inactive) in [6]. Besides, the GI50 in [7] was > 100 µM (inactive); in test [8], 63.1 µM (inactive); in test [9] it was > 100 µM (inactive); in test [10], > 100 µM (inactive); in test [11], 78.9 µM (inactive); in test [12], > 100 µM (inactive). The GI50 is > 100 µM (inactive) in test [13]; 51.9 µM (inactive) in test [14]; 5.19 µM (inactive) in test [15]; > 100 µM (inactive) in test [16]; > 100 µM (inactive) in [17]; > 100 µM (inactive) in test [18].

Consider `COC1=CC2C(c3cc4ccccc4n3S(=O)(=O)c3ccccc3)CC1CN2C(=O)OCc1ccccc1` (stereo not drawn), for which the GI50 in test [2] was 33.9 µM (inactive); in test [3], 19.8 µM (inactive); in [4], 23.8 µM (inactive); in test [5] it was 25 µM (inactive); in test [19], 29.8 µM (inactive); in test [6], 29.2 µM (inactive). Besides, the GI50 in [7] is 29.7 µM (inactive); in [8], 39.9 µM (inactive); in test [9] it was 29.4 µM (inactive); in test [11], 25 µM (inactive); in test [12], 19.6 µM (inactive); in test [13] it was 28.2 µM (inactive). In addition, the GI50 was 28.6 µM (inactive) in test [14]; 33.7 µM (inactive) in test [15]; 29.3 µM (inactive) in [16]; 1.6 µM (inactive) in test [17]; 16.4 µM (inactive) in test [18]; 33.3 µM (inactive) in test [20].

Consider `COc1cc(Cn2c3c(c4c(C(=O)NCCN(C)C)c(O)ccc42)C(=O)c2ccccc2C3=O)cc(OC)c1`, for which the GI50 in test [2] was 0.501 µM (active); in test [3] it was 1.54 µM (inactive); in test [4] it was 1.79 µM (inactive); in test [5], 2.23 µM (inactive); in [19] it was 1.91 µM (inactive); in test [6], 1.67 µM (inactive). The GI50 is 2.09 µM (inactive) in test [7]; 2 µM (inactive) in test [8]; 0.601 µM (active) in [9]; 1.92 µM (inactive) in test [11]; 1.73 µM (inactive) in test [12]; 1.76 µM (inactive) in test [13]. Further, the GI50 is 1.48 µM (inactive) in [14]; 1.73 µM (inactive) in test [15]; 1.7 µM (inactive) in [16]; 1.91 µM (inactive) in [17]; 2.04 µM (inactive) in test [18]; 1.37 µM (inactive) in test [20].

Turning to `CC(=O)C1=C(C)N(c2ccc(C)cc2)C2(O)C=CC(O)=C3C(=O)c4ccccc4C(=O)C312` (stereo not drawn), the GI50 is 55.1 µM (inactive) in test [1]; 9.14 µM (inactive) in test [2]; 1.91 µM (inactive) in test [3]; 24.2 µM (inactive) in test [4]; 11 µM (inactive) in [5]; 10.5 µM (inactive) in [19]. In addition, the GI50 was 15.4 µM (inactive) in [6]; 21.1 µM (inactive) in test [7]; 7.71 µM (inactive) in test [8]; 3.05 µM (inactive) in test [10]; 13.7 µM (inactive) in [11]; 18.6 µM (inactive) in test [12]. Moreover, the GI50 in test [13] is 5.52 µM (inactive); in test [14], 11.8 µM (inactive); in test [15] it was 7.38 µM (inactive); in test [16] it was 16.4 µM (inactive); in test [17], 19.4 µM (inactive); in [18], 7.76 µM (inactive). In addition, the GI50 in test [20] is 31.3 µM (inactive).

In the case of `CC1OC(NCCNCCNC2OC(C)C(O)C(O)C2O)C(O)C(O)C1O` (stereo not drawn), the GI50 in test [1], in [2], in test [3], in [4], in [5] and in test [19] was > 100 µM (inactive) in each case. Also, the GI50 in test [6], in test [7], in test [8], in [10], in test [11] and in [12] was > 100 µM (inactive) each time. Further, the GI50 in [13], in test [14], in test [15], in test [16], in [17] and in test [18] was > 100 µM (inactive) throughout. Besides, in [20], the GI50 is > 100 µM (inactive).

Consider `COC(=O)/C=C/N1CC1`, for which the GI50 in [2], in [3], in test [4], in test [5], in [19] and in [6] was > 10 µM (inactive) throughout. For the same molecule, the GI50 in test [7], in test [8], in [9], in test [10], in test [11] and in test [12] was > 10 µM (inactive) in each case. For the same molecule, the GI50 in test [13] is > 10 µM (inactive); in [14], > 10 µM (inactive); in test [15], 1.45 µM (inactive); in test [16], 3.12 µM (inactive); in test [17] it was 3.48 µM (inactive); in [18], 8.63 µM (inactive). For the same molecule, the GI50 in test [20] was > 10 µM (inactive).

`C/C=C/c1cc2c(cc1O)CC[C@@H]1[C@@H]2CC[C@]2(C)[C@@H](O)CC[C@@H]12`: the GI50 in [2] is 0.053 µM (active); in test [3], 0.164 µM (active); in test [4], 0.0653 µM (active); in test [5], 1.6 µM (inactive); in test [19], 0.0246 µM (active); in [6] it was 0.0849 µM (active). Also, the GI50 in test [7] was 0.133 µM (active); in [8], 0.171 µM (active); in test [9], 0.0289 µM (active); in [10], 0.0409 µM (active); in test [11], 0.966 µM (active); in [12] it was 0.041 µM (active). Besides, the GI50 was 0.022 µM (active) in [13]; 0.0594 µM (active) in test [14]; 1.96 µM (inactive) in test [15]; 2.37 µM (inactive) in [16]; 0.188 µM (active) in [17]; 0.0183 µM (active) in [18]. For the same molecule, the GI50 in test [20] was 0.016 µM (active).

Turning to `O=C1c2cccnc2S(=O)(=O)N1c1ccc([N+](=O)[O-])cc1`, the GI50 in test [1] is > 100 µM (inactive); in [2], > 100 µM (inactive); in [3], 51.8 µM (inactive); in test [4], 64 µM (inactive); in [5], > 100 µM (inactive); in test [19] it was > 100 µM (inactive). In addition, the GI50 in [6] was > 100 µM (inactive); in [7], > 100 µM (inactive); in [8] it was > 100 µM (inactive); in test [9] it was 68.5 µM (inactive); in test [10] it was > 100 µM (inactive); in test [11], > 100 µM (inactive). For the same molecule, the GI50 in test [12], in test [13], in [14], in test [15], in [16] and in [17] was > 100 µM (inactive) in each case. The GI50 in test [18] was 24 µM (inactive).

In the case of `CN(C)CCSCCO`, the GI50 in test [1], in test [2], in test [3], in test [4], in test [5] and in [19] was > 100 µM (inactive) in each case. The GI50 in test [6], in [7], in [8], in [11], in [12] and in test [13] was > 100 µM (inactive) each time. The GI50 is > 100 µM (inactive) in test [14]; > 100 µM (inactive) in test [15]; > 100 µM (inactive) in [16]; > 100 µM (inactive) in test [17]; 97.1 µM (inactive) in [18]; > 100 µM (inactive) in test [20].

Consider `CCCCCC(/C=C/[C@@H]1[C@@H](C(O)CCCCCC(=O)OC)C(=O)C[C@H]1O[Si](C)(C)C(C)(C)C)OCOCCOC` (stereo partly drawn), for which the GI50 is 21 µM (inactive) in test [1]; 15.6 µM (inactive) in test [2]; 16.8 µM (inactive) in test [3]; 9.84 µM (inactive) in test [4]; 9.06 µM (inactive) in test [5]; 13.1 µM (inactive) in [19]. Moreover, the GI50 in test [6] was 18 µM (inactive); in test [7], 15 µM (inactive); in test [8], 4.76 µM (inactive); in [9], 2.62 µM (inactive); in [10], 1.73 µM (inactive); in test [11], 17.9 µM (inactive). Also, the GI50 was 13.8 µM (inactive) in [12]; 4.37 µM (inactive) in test [13]; 15.3 µM (inactive) in test [14]; 6.28 µM (inactive) in test [15]; 13.8 µM (inactive) in test [16]; 10.4 µM (inactive) in test [17]. Also, the GI50 in test [20] was > 21 µM (inactive).

For `COc1nc(N)c(C#N)c(C#N)c1C#N`, the GI50 in [1], in test [2], in [3], in [4], in test [5] and in test [6] was > 10 µM (inactive) in each case. Further, the GI50 in test [7], in [8], in test [10], in test [11], in [12] and in [13] was > 10 µM (inactive) each time. In addition, the GI50 in test [14], in [16], in test [17], in [18] and in test [20] was > 10 µM (inactive) throughout.
